pIC50: −log10 of the molar value.
Assays:
[1] = molecular target: T1, Tyrosine-protein kinase Lck (Homo sapiens, UniProt P06239); test: Inhibition of Lck
[2] = molecular target: T1, Tyrosine-protein kinase Lck; test: Inhibition of Lck kinase activity
Jurkat = test: Inhibition of antigen-stimulated IL-2 production in human Jurkat cells expressing MART-1 antigen specific TCR; assay type: functional, cell-based

T1 sequence (P06239 whole entry): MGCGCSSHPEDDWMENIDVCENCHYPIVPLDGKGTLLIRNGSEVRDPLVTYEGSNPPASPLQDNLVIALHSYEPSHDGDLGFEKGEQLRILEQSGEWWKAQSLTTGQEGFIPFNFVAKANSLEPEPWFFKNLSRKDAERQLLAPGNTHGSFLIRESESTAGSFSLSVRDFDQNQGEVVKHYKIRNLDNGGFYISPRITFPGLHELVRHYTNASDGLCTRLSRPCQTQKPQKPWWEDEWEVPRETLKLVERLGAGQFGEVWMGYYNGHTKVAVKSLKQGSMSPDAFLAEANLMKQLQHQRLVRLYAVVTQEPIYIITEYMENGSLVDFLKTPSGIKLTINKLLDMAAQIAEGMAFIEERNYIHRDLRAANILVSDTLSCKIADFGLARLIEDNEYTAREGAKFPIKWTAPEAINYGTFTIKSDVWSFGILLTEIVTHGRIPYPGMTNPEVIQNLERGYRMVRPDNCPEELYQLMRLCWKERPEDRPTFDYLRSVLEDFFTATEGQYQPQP

## CC(Nc1nccc(-n2cnc3ccccc32)n1)C1CCCN(C(=O)Nc2ccc3ccccc3c2)C1 (centres undefined)
[1]
  pIC50: 7.40

## CC(Nc1nccc(-n2cnc3ccccc32)n1)C1CCCN(C(=O)NC2CCCCC2)C1 (centres undefined)
[1]
  pIC50: 5.90

## Cc1nc2ccccc2n1-c1ccnc(N[C@@H](C)c2ccccc2)n1
[2]
  pIC50: < 4.70
[1]
  pIC50: < 4.70

## C[C@H](Nc1nccc(-n2cnc3ccccc32)n1)[C@@H]1CN(C(=O)Nc2cccc3ccccc23)CCN1c1ccncc1
Jurkat; Homo sapiens, Jurkat
  pIC50: 6.26
[1]
  pIC50: 9.70

## C[C@H](Nc1nccc(-n2cnc3cc(-c4ccncc4)ccc32)n1)[C@@H]1CN(C(=O)Nc2cccc3ccccc23)CCN1C
Jurkat; Homo sapiens, Jurkat
  pIC50: 8.10
[1]
  pIC50: 9.92

## CC(Nc1nccc(-n2cnc3ccccc32)n1)C1CCCN(C(=O)Nc2cccc3ccccc23)C1 (racemic)
[1]
  pIC50: 9.00

## CC(Nc1nccc(-n2cnc3ccccc32)n1)C1CNCCN1C (centres undefined)
Jurkat; Homo sapiens, Jurkat
  pIC50: < 5.00
[1]
  pIC50: < 6.00

## CC(Nc1nccc(-n2cnc3ccccc32)n1)C1CCCN(C(=O)OCc2ccccc2)C1 (stereo in doubt; 12b)
[1]
  pIC50: 5.56

## C[C@H](Nc1nccc(-n2cnc3ccccc32)n1)c1ccccc1
[1]
  pIC50: 6.82

## CC(Nc1nccc(-n2cnc3ccccc32)n1)C1CN(C(=O)Nc2cccc3ccccc23)CCN1C (single isomer, unassigned; diastereomer 2)
Jurkat; jurkat
  pIC50: < 6.00
[1]
  pIC50: 7.76

## C[C@H](Nc1nccc(-n2cnc3cc(-c4ccnc(N)n4)ccc32)n1)[C@@H]1CN(C(=O)Nc2cccc3ccccc23)CCN1C
Jurkat; Homo sapiens, Jurkat
  pIC50: 7.80
[1]
  pIC50: 10.15

## O=C(Nc1cccc2ccccc12)N1CCC(CNc2nccc(-n3cnc4ccccc43)n2)C1 (centres undefined)
[1]
  pIC50: < 5.00

## CCCCCCN1CCN(C(=O)Nc2cccc3ccccc23)C[C@H]1[C@H](C)Nc1nccc(-n2cnc3ccccc32)n1
Jurkat; Homo sapiens, Jurkat
  pIC50: < 6.00
[1]
  pIC50: 8.74

## CC(Nc1nccc(-n2cnc3ccccc32)n1)C1CN(C(=O)Nc2cccc3ccccc23)CCN1Cc1ccccc1 (centres undefined)
Jurkat; Homo sapiens, Jurkat
  pIC50: < 6.00
[1]
  pIC50: 8.59

## CCN1CCN(c2ccc3c(c2)ncn3-c2ccnc(N[C@@H](C)[C@@H]3CN(C(=O)Nc4cccc5ccccc45)CCN3C)n2)C1=O
Jurkat; Homo sapiens, Jurkat
  pIC50: 7.38
[1]
  pIC50: 9.40

## O=C(Nc1cccc2ccccc12)N1CCNC(CNc2nccc(-n3cnc4ccccc43)n2)C1 (centres undefined)
[1]
  pIC50: 6.96

## CC(Nc1nccc(-n2cnc3ccccc32)n1)C1CN(S(C)(=O)=O)CCN1C (centres undefined)
Jurkat; Homo sapiens, Jurkat
  pIC50: < 6.00
[1]
  pIC50: 7.65

## CC(Nc1nccc(-n2cnc3ccccc32)n1)C1CCCN(C(=O)OCc2ccccc2)C1 (stereo in doubt; 12a)
[1]
  pIC50: 6.84

## CN1CCN(C(=O)c2ccc3ccccc3c2)CC1CNc1nccc(-n2cnc3ccccc32)n1 (centres undefined)
[1]
  pIC50: 8.00

## CC(Nc1nccc(-n2cnc3ccccc32)n1)C1CCCN(C(=O)Nc2ccccc2)C1 (centres undefined)
[1]
  pIC50: 7.96

## CC(C)CN1CCN(C(=O)Nc2cccc3ccccc23)C[C@H]1[C@H](C)Nc1nccc(-n2cnc3ccccc32)n1
Jurkat; Homo sapiens, Jurkat
  pIC50: 6.27
[1]
  pIC50: 9.70

## O=C(OCc1ccccc1)N1CCCCC1CNc1nccc(-n2cnc3ccccc32)n1 (centres undefined)
[1]
  pIC50: < 4.70

## CC(Nc1nccc(-n2cnc3ccccc32)n1)C1CN(Cc2ccccc2)CCN1C (centres undefined)
Jurkat; Homo sapiens, Jurkat
  pIC50: < 5.00
[1]
  pIC50: 6.30

## C[C@H](Nc1nccc(-n2cnc3ccccc32)n1)C1CCCCC1
[1]
  pIC50: 6.61

## O=C(OCc1ccccc1)N1CCCC(CNc2nccc(-n3cnc4ccccc43)n2)C1 (centres undefined)
[1]
  pIC50: 6.19

## CCOC(=O)CN1CCN(C(=O)Nc2cccc3ccccc23)C[C@H]1[C@H](C)Nc1nccc(-n2cnc3ccccc32)n1
Jurkat; Homo sapiens, Jurkat
  pIC50: 6.07
[1]
  pIC50: 9.35

## CCN1CCN(c2ccc3c(c2)ncn3-c2ccnc(N[C@@H](C)c3ccccc3)n2)C1=O
Jurkat; Homo sapiens, Jurkat
  pIC50: 6.78
[1]
  pIC50: 9.00

## Cc1cc2ncn(-c3ccnc(N[C@@H](C)c4ccccc4)n3)c2cc1C
[2]
  pIC50: 5.68
[1]
  pIC50: 5.68

## C[C@H](Nc1nccc(-n2cnc3ccccc32)n1)[C@@H]1CN(C(=O)Nc2cccc3ccccc23)CCN1C
Jurkat; Homo sapiens, Jurkat
  pIC50: 6.95
[1]
  pIC50: 10.22

## CC(Nc1nccc(-n2cnc3ccccc32)n1)C1CCCN(C(=O)Cc2ccccc2)C1 (centres undefined)
[1]
  pIC50: 6.10

## O=C(OCc1ccccc1)N1CCC(CNc2nccc(-n3cnc4ccccc43)n2)CC1
[1]
  pIC50: < 4.70

## Cc1ccc2ncn(-c3ccnc(N[C@@H](C)c4ccccc4)n3)c2c1
[2]
  pIC50: 7.24
[1]
  pIC50: 7.24

## Cc1ccc2c(c1)ncn2-c1ccnc(N[C@@H](C)c2ccccc2)n1
[2]
  pIC50: 6.89
[1]
  pIC50: 6.89

## CC(Nc1nccc(-n2cnc3ccccc32)n1)C1CCCN(C(=O)Oc2ccccc2)C1 (centres undefined)
[1]
  pIC50: 7.34

## C[C@H](Nc1nccc(-n2cnc3ccccc32)n1)c1cccc([N+](=O)[O-])c1
[1]
  pIC50: 7.33

## CCN1CCN(C(=O)Nc2cccc3ccccc23)C[C@H]1[C@H](C)Nc1nccc(-n2cnc3ccccc32)n1
Jurkat; Homo sapiens, Jurkat
  pIC50: 6.81
[1]
  pIC50: 10.15

## CNC(=O)N1CCCC(C(C)Nc2nccc(-n3cnc4ccccc43)n2)C1 (centres undefined)
[1]
  pIC50: 6.62

## c1ccc(CNc2nccc(-n3cnc4ccccc43)n2)cc1
[1]
  pIC50: 6.08

## CC(=O)N1CCN(C(=O)Nc2cccc3ccccc23)C[C@H]1[C@H](C)Nc1nccc(-n2cnc3ccccc32)n1
Jurkat; Homo sapiens, Jurkat
  pIC50: < 5.00
[1]
  pIC50: 6.94

## C[C@H](Nc1nccc(-n2cnc3cc(-c4ccncc4)ccc32)n1)c1ccccc1
Jurkat; Homo sapiens, Jurkat
  pIC50: 7.01
[1]
  pIC50: 8.52

## C[C@H](Nc1nccc(-n2cnc3ccccc32)n1)[C@H]1CCCN(C(=O)Nc2cccc3ccccc23)C1
[1]
  pIC50: 9.40

## O=C(c1ccc2ccccc2c1)N1CCOC(CNc2nccc(-n3cnc4ccccc43)n2)C1 (centres undefined)
[1]
  pIC50: 6.69

## CC(Nc1nccc(-n2cnc3ccccc32)n1)C1CN(C(=O)Nc2cccc3ccccc23)CCN1C(=O)OCc1ccccc1 (centres undefined)
Jurkat; Homo sapiens, Jurkat
  pIC50: < 5.00
[1]
  pIC50: < 6.00

## O=C(c1ccc2ccccc2c1)N1CCCC(CNc2nccc(-n3cnc4ccccc43)n2)C1 (centres undefined)
[1]
  pIC50: 6.97

## CC(Nc1nccc(-n2cnc3ccccc32)n1)C1CN(C(=O)Nc2ccc3ccccc3c2)CCN1C (centres undefined)
Jurkat; Homo sapiens, Jurkat
  pIC50: < 6.00
[1]
  pIC50: 7.12

## CC(Nc1nccc(-n2cnc3ccccc32)n1)C1CN(C(=O)Nc2cccc3ccccc23)CCN1C (single isomer, unassigned; diastereomer 1)
Jurkat; jurkat
  pIC50: 6.44
[1]
  pIC50: 9.60

## CC(Nc1nccc(-n2cnc3ccccc32)n1)C1CN(C(=O)Nc2cccc3ccccc23)CCN1S(=O)(=O)c1ccccc1 (centres undefined)
Jurkat; Homo sapiens, Jurkat
  pIC50: < 5.00
[1]
  pIC50: 7.58

## CC(Nc1nccc(-n2cnc3ccccc32)n1)C1CN(C)CCN1C (centres undefined)
Jurkat; Homo sapiens, Jurkat
  pIC50: < 5.00
[1]
  pIC50: < 6.00

## C[C@@H](Nc1nccc(-n2cnc3ccccc32)n1)c1ccccc1
[1]
  pIC50: 5.75

## CC(Nc1nccc(-n2cnc3ccccc32)n1)C1CN(C(=O)Nc2cccc3ccccc23)CCN1S(C)(=O)=O (centres undefined)
Jurkat; Homo sapiens, Jurkat
  pIC50: < 6.00
[1]
  pIC50: 7.93

## C[C@H](Nc1nccc(-n2cnc3cc(-c4ccnc(N)n4)ccc32)n1)c1ccccc1
Jurkat; Homo sapiens, Jurkat
  pIC50: 6.95
[1]
  pIC50: 8.82
